Measured values reported in patent US9328138B2 (priority 2011, dated 2016).
Counter-ions that a name gives are not always drawn.

Key:
[1] = target: HCV NS3 protease genotype 3a (3A-1) (Hepatitis C virus genotype 3a, UniProt Q81258); assay: HCV NS3 protease time-resolved fluorescence (TRF) assay, genotype 3a; format: biochemical; settings: Ki 3a
Outline: (§1)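 Pre-incubation of NS3/NS4A protease with inhibitor for 10 min in pH 7.5 HEPES buffer with 10 mM DTT; 25 nM TRF peptide substrate, hydrolysis 6 h at room temperature. Fluorescence read at ex 340/em 615 nm with 400 μs delay, enzyme level set for S/B 5-20; IC50 by four-parameter fit.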

[2] = target: T1, HCV genotype 1b (BK) NS3 modified enzyme with a R155K mutation (Hepatitis C virus genotype 1b, UniProt P26663, R1181K); assay: HCV NS3 protease time-resolved fluorescence (TRF) assay, genotype 1b R155K; format: biochemical; settings: Ki 1b R155K
T1 construct: HCV genotype 1b (BK) NS3 modified enzyme
Outline: as §1

[3] = genotype 1b (BK) NS3 R155K, single value
[4] = first of two values printed in the cell (not explained)
[5] = second of two values printed in the cell (not explained)

C=C[C@@H]1C[C@]1(NC(=O)[C@@H]1C[C@@H]2CN1C(=O)[C@H](C(C)(C)C)NC(=O)O[C@]1(C)C[C@H]1CCCCCc1c(nc3ccccc3c1OCCN1CCOCC1)O2)C(=O)NS(=O)(=O)C1(COC)CC1 [Example 99, (1aR,5S,8S,10R,22aR)-5-tert-butyl-N-[(1R,2S)-2-ethenyl-1-({[1-(methoxymethyl)cyclopropyl]sulfonyl}carbamoyl)cyclopropyl]-1a-methyl-17-[2-(morpholin-4-yl)ethoxy]-3,6-dioxo-1,1a, 3,4,5,6,9,10,18,19,20,21,22,22a-tetradecahydro-8H-7,10-methano-cyclopropa[18,19][1,10,3,6] dioxadiazacyclononadecino [11,12-b]quinoline-8-carboxamide]
Ki [1]: 2.8 nM
Ki [2, 3]: 0.28 nM

C=C[C@@H]1C[C@]1(NC(=O)[C@@H]1C[C@@H]2CN1C(=O)[C@H](C(C)(C)C)NC(=O)O[C@@H]1C[C@H]1CCCCCc1c(nc3ccccc3c1OCCCN(C)Cc1ccn[nH]1)O2)C(=O)NS(=O)(=O)C1(C)CC1 [Example 202, (1aR,5S,8S,10R,22aR)-5-tert-butyl-N-[(1R,2S)-2-ethenyl-1-{[(1-methylcyclopropyl)sulfonyl]carbamoyl}cyclopropyl]-17-{3-[methyl(1H-pyrazol-5-ylmethyl)amino]propoxy}-3,6-dioxo-1,1a,3,4,5,6,9,10,18, 19,20,21,22,22a-tetradecahydro-8H-7,10-methanocyclopropa[18,19][1,10,3,6] dioxadiazacyclononadecino[11,12-b] quinoline-8-carboxamide]
Ki [1]: 0.95 nM
Ki [2, 3]: 0.05 nM

C=C[C@@H]1C[C@]1(NC(=O)[C@@H]1C[C@@H]2CN1C(=O)[C@H](C1CCCCC1)NC(=O)O[C@@H]1C[C@H]1CCCCCc1c(nc3ccccc3c1OCCCN1CC(F)(F)C1)O2)C(=O)NS(=O)(=O)C1(C)CC1 [Example 249, (1aR,5S,8S,10R,22aR)-5-cyclohexyl-17-[3-(3,3-difluoroazetidin-1-yl)propoxy]-N-[(1R,2S)-2-ethenyl-1-{[(1-methylcyclopropyl)sulfonyl]carbamoyl}cyclopropyl]-3,6-dioxo-1,1a,3,4,5,6,9,10,18,19,20,21,22,22a-tetradecahydro-8H-7,10-methanocyclopropa[18,19][1,10,3,6]dioxadiazacyclononadecino[11,12-b]quinoline-8-carboxamide]
Ki [1]: 7.55 nM
Ki [2, 4]: 0.026 nM
Ki [2, 5]: 0.5 nM

C=C[C@@H]1C[C@]1(NC(=O)[C@@H]1C[C@@H]2CN1C(=O)[C@H](C1CCCCC1)NC(=O)O[C@@H]1C[C@H]1CCCCCc1c(nc3ccccc3c1OC1CCN(CC)CC1)O2)C(=O)NS(=O)(=O)C1(C)CC1 [Example 239, 4-{[(1aR,5S,8S,10R,22aR)-5-cyclohexyl-8-{[(1R,2S)-2-ethenyl-1-{[(1-methylcyclopropyl)sulfonyl]carbamoyl}cyclopropyl]carbamoyl}-3,6-dioxo-1,1a,3,4,5,6,9,10,18,19,20,21,22,22a-tetradecahydro-8H-7,10-methanocyclopropa[18,19][1,10,3,6]dioxadiazacyclononadecino[11,12-b]quinolin-17-yl]oxy}-1-ethylpiperidinium formate]
Ki [1]: 0.278 nM
Ki [2, 4]: 0.016 nM
Ki [2, 5]: 0.064 nM

C=C[C@@H]1CC1(NC(=O)[C@@H]1C[C@@H]2CN1C(=O)[C@H](C1CCCCC1)NC(=O)O[C@@H]1C[C@H]1CCCCCc1c(nc3ccccc3c1OC1CCNCC1F)O2)C(=O)NS(=O)(=O)C1(C)CC1 (stereo in doubt) [Example 293, (3S,4R)-4-{[(1aR,5S,8S,10R,22aR)-5-cyclohexyl-8-{[(1R,2S)-2-ethenyl-1-{[(1-methylcyclopropyl)sulfonyl]carbamoyl}cyclopropyl]carbamoyl}-3,6-dioxo-1,1a,3,4,5,6,9,10,18,19,20,21,22,22a-tetradecahydro-8H-7,10-methanocyclopropa[18,19][1,10,3,6]dioxadiazacyclononadecino[11,12-b]quinolin-17-yl]oxy}-3-fluoropiperidinium chloride]
Ki [1]: 1.3 nM
Ki [2, 4]: 0.029 nM
Ki [2, 5]: 0.138 nM

C=C[C@@H]1C[C@]1(NC(=O)[C@@H]1C[C@@H]2CN1C(=O)[C@H](C(C)(C)C)NC(=O)O[C@@H]1C[C@H]1CCCCCc1c(nc3ccccc3c1OCCCN1CCC(C)(O)C1)O2)C(=O)NS(=O)(=O)C1(C)CC1 (stereo partly drawn) [Example 209, (1aR,5S,8S,10R,22aR)-5-tert-butyl-N-[(1R,2S)-2-ethenyl-1-{[(1-methylcyclopropyl)sulfonyl]carbamoyl}cyclopropyl]-17-[3-(3-hydroxy-3-methylpyrrolidin-1-yl)propoxy]-3,6-dioxo-1,1a,3,4,5,6,9,10,18,19,20,21,22,22a-tetradeca hydro-8H-7,10-methanocyclopropa[18,19][1,10,3,6] dioxadiazacyclononadecino[11,12-b] quinoline-8-carboxamide]
Ki [1]: 0.55 nM
Ki [2, 3]: 0.056 nM

C=C[C@@H]1C[C@]1(NC(=O)[C@@H]1C[C@@H]2CN1C(=O)[C@H](C(C)(C)C)NC(=O)O[C@@H]1C[C@H]1CCCCCc1c(nc3c(OC)cccc3c1OCCN1CCOCC1)O2)C(=O)NS(=O)(=O)C1(C)CC1 [Example 127, (1aR,5S,8S,10R,22aR)-5-tert-butyl-N-[(1R,2S)-2-ethenyl-1-{[(1-methylcyclopropyl)sulfonyl]carbamoyl}cyclopropyl]-13-methoxy-17-[2-(morpholin-4-yl)ethoxy]-3,6-dioxo-1,1a,3,4,5,6.9, 10,18,19,20,21,22,22a-tetradecahydro-8H-7,10-methanocyclopropa [18,19][1,10,3,6]dioxadiaza cyclononadecino[11,12-b]quinoline-8-carboxamide]
Ki [1]: 2.1 nM
Ki [2, 3]: 0.11 nM

CC1(S(=O)(=O)NC(=O)[C@@]23C[C@H]2/C=C\CCCCC[C@@H]2NC(=O)O[C@@H]4C[C@H]4CCC/C=C/c4c(nc5ccccc5c4OCCCN4CCCCC4)O[C@@H]4C[C@@H](C(=O)N3)N(C4)C2=O)CC1 [Example 302, (1aR,5S,11Z,12aS,13aR,16S,19R,27E,31aR)—N-[(1-methylcyclopropyl)sulfonyl]-3,15,33-trioxo-26-[3-(piperidin-1-yl)propoxy]-1,1a,3,4,5,6,7,8,9,10,12a,13,15,16,18,19,29,30,31,31a-icosahydro-5,17:16,19-dimethanodicyclopropa[12,13:28,29][1,20,3,14,17]dioxatriazacyclononacosino[21,22-b]quinoline-13a(14H)-carboxamide]
Ki [1]: 2 nM
Ki [2, 3]: 0.16 nM

CCOc1c2c(nc3ccccc13)O[C@@H]1C[C@@H](C(=O)N[C@]3(C(=O)NS(=O)(=O)C4CC4)C[C@H]3CC)N(C1)C(=O)[C@H](C1CCCC1)NC(=O)O[C@@H]1CCC[C@H]1CCCCC2 [Example 25, (3aR,7S,10S,12R,24aR)-7-cyclo pentyl-N-{(1R,2R)-1-[(cyclopropylsulfonyl)carbamoyl]-2-ethylcyclopropyl}-19-ethoxy-5,8-dioxo-1,2,3,3a,5,6,7,8,11,12,20,21,22,23,24,24a-hexadecahydro-10H-9,12-methanocyclopenta[18,19][1,10,3,6]dioxa diazacyclononadecino[11,12-b]quinoline-10-carboxamide]
Ki [1]: 88 nM
Ki [2, 3]: 5.2 nM

C=C[C@@H]1C[C@]1(NC(=O)[C@@H]1C[C@@H]2CN1C(=O)[C@H](C1CCCC1)NC(=O)O[C@@H]1CCC[C@H]1CC/C=C/Cc1c(nc3ccccc3c1OCCn1cccn1)O2)C(=O)NS(=O)(=O)C1CC1 [Example 44, (3aR,7S,10S,12R,21E,24aS)-7-cyclopentyl-N-{(1R,2S)-1-[(cyclopropylsulfonyl)carbamoyl]-2-ethenylcyclopropyl}-5,8-dioxo-19-[2-(1H-pyrazol-1-yl)ethoxy]-1,2,3,3a,5,6,7,8,11,12,20,23,24,24a-tetra decahydro-10H-9,12-methanocyclopenta[18,19][1,10,3,6]dioxadiazacyclonona decino[11,12-b] quinoline-10-carboxamide]
Ki [1]: 7.9 nM
Ki [2, 3]: 0.25 nM

C=CC1C[C@]1(NC(=O)[C@@H]1C[C@@H]2CN1C(=O)[C@H](C1CCCC1)NC(=O)O[C@@H]1CCC[C@H]1CC/C=C/Cc1c(nc3ccccc3c1OCCN1CCCCC1)O2)C(=O)NS(=O)(=O)C1CC1 (stereo partly drawn) [Example 81]
Ki [1]: 4.6 nM
Ki [2, 3]: 0.29 nM

C=C[C@@H]1C[C@]1(NC(=O)[C@@H]1C[C@@H]2CN1C(=O)[C@H](C(C)(C)C)NC(=O)O[C@@H]1C[C@H]1CCCCCc1c(nc3ccccc3c1OCCN1CCC(C)(O)CC1)O2)C(=O)NS(=O)(=O)C1(C)CC1 [Example 175, (1aR,5S,8S,10R,22aR)-5-tert-butyl-N-[(1R,2S)-2-ethenyl-1-{[(1-methylcyclopropyl)sulfonyl]carbamoyl}cyclopropyl]-17-[2-(4-hydroxy-4-methylpiperidin-1-yl)ethoxy]-3,6-dioxo-1,1a,3,4,5,6,9,10,18,19,20,21,22,22a-tetradeca hydro-8H-7,10-methanocyclopropa[18,19][1,10,3,6] dioxadiazacyclononadecino[11,12-b] quinoline-8-carboxamide]
Ki [1]: 0.89 nM
Ki [2, 3]: 0.091 nM

C=C[C@@H]1C[C@]1(NC(=O)[C@@H]1C[C@@H]2CN1C(=O)[C@H](C1CCCCC1)NC(=O)O[C@@H]1C[C@H]1CCCCCc1c(nc3ccccc3c1OC1CCN(CC3CC3)CC1)O2)C(=O)NS(=O)(=O)C1(C)CC1 [Example 238, 4-{[(1aR,5S,8S,10R,22aR)-5-cyclohexyl-8-{[(1R,2S)-2-ethenyl-1-{[(1-methylcyclopropyl)sulfonyl]carbamoyl}cyclopropyl]carbamoyl}-3,6-dioxo-1,1a,3,4,5,6,9,10,18,19,20,21,22,22a-tetradecahydro-8H-7,10-methanocyclopropa[18,19][1,10,3,6]dioxadiazacyclononadecino[11,12-b]quinolin-17-yl]oxy}-1-(cyclopropylmethyl)piperidinium formate]
Ki [1]: 0.9 nM
Ki [2, 4]: 0.031 nM
Ki [2, 5]: 0.047 nM
